# Experiments:
# velvetleaf [1] = assay: Upland pre-emergence treatment test, velvetleaf; assay type: in vivo, velvetleaf (Abutilon theophrasti); as to Herbicidal Efficacy AA = Velvetleaf: ranges in brackets are in %
# Excerpt: (§1) 97 Parts by weight of talc (trade name: Zeaklite, supplied by Zeaklite Industry) as a carrier, 1.5 parts by weight of alkylarylsulfonic acid salt (trade name: Neoplex, supplied by Kao-Atlas K.K.) as a surfactant and 1.5 parts by weight of a nonionic and anionic surfactant (trade names Sorpol 800A, supplied by Toho Chemical Co., Ltd.) were uniformly pulverized and mixed to prepare a carrier for a wettable powder.
# (§2) 90 Parts by weight of the above carrier for a wettable powder and 10 parts by weight of one of the compounds of the present invention were uniformly pulverized and mixed to obtain herbicides. Further, in Comparative Herbicide Examples, comparative herbicides were also prepared from the following compounds (A) and (B) in the same manner.
# (§3) Herbicidal efficacy and phytotoxicity to crops were determined on the basis of the ratio of remaining plant weight to plant weight in non-treated plot=(remaining plant weight in treated plot/plant weight in non-treated-plot)×100. The ratings were applied to the following biological tests.
# (§4) Seeds of weeds such as velvetleaf, common lambsquaters, redroot pigweed, common ragweed, green foxtail and large crabgrass and seeds of corn were sown in 1/5,000-are Wagner pots filled with upland soil, and covered with upland soil. Then, a predetermined amount of the herbicide prepared in the above (1) was suspended in water, and the suspension was uniformly sprayed onto the soil surface at a rate of 2,000 liters/hectare. Then, the seeds were grown in a greenhouse, and on the 20th day after the treatment, the herbicide was evaluated for herbicidal efficacy and phytotoxicity to corn on the basis of the ratings shown in (2).
# common lambsquaters = assay: Upland pre-emergence treatment test, common lambsquaters; assay type: in vivo, common lambsquaters (Chenopodium album); details: pre-emergence soil surface spray, 80 g/ha, 20th day after treatment, greenhouse; also: ranges in brackets are in %
# Excerpt: as §1, §2, §3, §4
# redroot pigweed [2] = assay: Upland pre-emergence treatment test, redroot pigweed; assay type: in vivo, redroot pigweed (Amaranthus retroflexus); as to Herbicidal Efficacy CC = Rough Pigweed: ranges in brackets are in %
# Excerpt: as §1, §2, §3, §4
# common ragweed [3] = assay: Upland pre-emergence treatment test, common ragweed; assay type: in vivo, common ragweed (Ambrosia artemisilfolia); as to Herbicidal Efficacy DD = Common ragweed: ranges in brackets are in %
# Excerpt: as §1, §2, §3, §4
# green foxtail [4] = assay: Upland pre-emergence treatment test, green foxtail; assay type: in vivo, green foxtail (Setaria viridis); details: pre-emergence soil surface spray, 80 g/ha, 20th day after treatment, greenhouse; also: ranges in brackets are in %
# Excerpt: as §1, §2, §3, §4
# large crabgrass [5] = assay: Upland pre-emergence treatment test, large crabgrass; assay type: in vivo; details: pre-emergence soil surface spray, 80 g/ha, 20th day after treatment, greenhouse; also: ranges in brackets are in %
# Excerpt: as §1, §2, §3, §4
# corn [6] = assay: Upland pre-emergence treatment test, phytotoxicity to corn; assay type: in vivo; details: pre-emergence soil surface spray, 80 g/ha, 20th day after treatment, greenhouse; also: ranges in brackets are in %
# Excerpt: as §1, §2, §3, §4
# velvetleaf [7] = assay: Upland post-emergence treatment test, velvetleaf; assay type: in vivo, velvetleaf (Abutilon theophrasti); as to Herbicidal Efficacy AA = Velvetleaf: ranges in brackets are in %
# Excerpt: as §1, §2, §3
# (§5) Seeds of weeds velvetleaf, redroot pigweed, common ragweed, green foxtail and large crabgrass and seeds of corn were sown in 1/5,000-are Wagner pots filled with upland soil, and covered with upland soil. The seeds were grown in a greenhouse, and at the stage of 3˜4 leaves of these plants, a predetermined amount of the herbicide prepared in the above (1) was suspended in water, and the suspension was uniformly sprayed onto leaf and stalk portions at a rate of 2,000 liters/hectare. Then, the plants were grown in the greenhouse, and on the 30th day after the treatment, the herbicide was evaluated for herbicidal efficacy and phytotoxicity to the corn on the basis of the ratings shown in (2).
# redroot pigweed [8] = assay: Upland post-emergence treatment test, redroot pigweed; assay type: in vivo, redroot pigweed (Amaranthus retroflexus); as to Herbicidal Efficacy CC = Redroot Pigweed: ranges in brackets are in %
# Excerpt: as §1, §2, §3, §5
# common ragweed [9] = assay: Upland post-emergence treatment test, common ragweed; assay type: in vivo, common ragweed (Ambrosia artemisilfolia); details: post-emergence spray at 3-4 leaf stage, 80 g/ha, 30th day after treatment, greenhouse; also: ranges in brackets are in %
# Excerpt: as §1, §2, §3, §5
# green foxtail [10] = assay: Upland post-emergence treatment test, green foxtail; assay type: in vivo, green foxtail (Setaria viridis); details: post-emergence spray at 3-4 leaf stage, 80 g/ha, 30th day after treatment, greenhouse; also: ranges in brackets are in %
# Excerpt: as §1, §2, §3, §5
# large crabgrass [11] = assay: Upland post-emergence treatment test, large crabgrass; assay type: in vivo; details: post-emergence spray at 3-4 leaf stage, 80 g/ha, 30th day after treatment, greenhouse; also: ranges in brackets are in %
# Excerpt: as §1, §2, §3, §5
# corn [12] = assay: Upland post-emergence treatment test, phytotoxicity to corn; assay type: in vivo; details: post-emergence spray at 3-4 leaf stage, 80 g/ha, 30th day after treatment, greenhouse; also: ranges in brackets are in %
# Excerpt: as §1, §2, §3, §5
# [13] = pre-emergence soil surface spray, 80 g/ha, 20th day after treatment, greenhouse
# [14] = pre-emergence, text summary of Table 7
# [15] = post-emergence spray at 3-4 leaf stage, 80 g/ha, 30th day after treatment, greenhouse
compound,measurement,setting,value
"CCn1ncc(C(=O)c2cc(C)c3c(c2C)C(C)CS3(=O)=O)c1O (stereo not drawn) [Compound (B), reference compound]",Herbicidal Efficacy AA = Velvetleaf,velvetleaf [1]; [13],1 (61-80)
same,herbicidal efficacy against velvetleaf (in words),velvetleaf [1]; [14],inferior
same,Herbicidal Efficacy BB = Common lambsquaters,common lambsquaters,4 (1-20)
same,Herbicidal Efficacy CC = Rough Pigweed,redroot pigweed [2]; [13],1 (61-80)
same,herbicidal efficacy against redroot pigweed (in words),redroot pigweed [2]; [14],inferior
same,Herbicidal Efficacy DD = Common ragweed,common ragweed [3]; [13],2 (41-60)
same,herbicidal efficacy against common ragweed (in words),common ragweed [3]; [14],inferior
same,Herbicidal Efficacy EE = Green foxtail,green foxtail [4],5 (0)
same,Herbicidal Efficacy FF = Large crabgrass,large crabgrass [5],5 (0)
same,Phytotoxicity Corn,corn [6],− (100)
same,Herbicidal Efficacy AA = Velvetleaf,velvetleaf [7]; [15],2 (41-60)
same,herbicidal efficacy against velvetleaf (in words),"velvetleaf [7]; post-emergence, Tables 8 and 9",inferior
same,Herbicidal Efficacy CC = Redroot Pigweed,redroot pigweed [8]; [15],2 (41-60)
same,herbicidal efficacy against redroot pigweed (in words),"redroot pigweed [8]; post-emergence, Tables 8 and 9",inferior
same,Herbicidal Efficacy DD = Common ragweed,common ragweed [9],5 (0)
same,Herbicidal Efficacy EE = Green foxtail,green foxtail [10],4 (1-20)
same,Herbicidal Efficacy FF = Large crabgrass,large crabgrass [11],5 (0)
same,Phytotoxicity Corn,corn [12],++ (80-89)
